Laboratory results as given in patent US20110262945A1, “GLYCOPROTEIN PRODUCTION METHOD AND SCREENING METHOD” (OTSUKA CHEMICAL CO., LTD., priority 2008, published 2011).
Where a SMILES comes first, the peptide text is derived from it. [ ]: non-standard residue; d: D form. Thz = O=C(O)[C@@H]1CSCN1

Key:
Chymotrypsin [1] = target: T1, Chymotrypsin (Bos taurus, UniProt P00766); test: Michaelis-Menten plot of the substrate peptide (degradation by chymotrypsin); format: biochemical; design: unit not given here; details: 30 minutes at 37° C.
Method: (§1) Into 1 mL of a 0.1 M phosphate buffer (pH 8.0, containing BSA (0.1 mg/mL)), 3.1 mg of the 14-residue peptide thus synthesized (SEQ ID NO:16) was dissolved to prepare a 2 mM solution. This solution was diluted to prepare substrate solutions having concentrations of 1.6 mM, 1.2 mM, 0.8 mM, 0.4 mM, 0.2 mM, 0.1 mM, and 0.05 mM. Separately, chymotrypsin (1 mg) was dissolved in 1 mL of a 0.1 M phosphate buffer (pH 8.0, containing BSA (0.1 mg/mL)). The resulting solution was diluted 10-fold, and further diluted 10-fold. The above operation was repeated so that a solution of 0.1 μg/mL was prepared. Into the same Eppendorf tube, 50 μL of a substrate solution of each concentration that was sufficiently cooled on ice and 50 μL of the enzyme solution were transferred, followed by incubation for 30 minutes at 37° C. After 30 minutes, the reaction was terminated by addition of 10 μL of 1N hydrochloric acid. Then, 20 μL of the resulting reaction solution was mixed with 80 μL of buffer to make up a total of 100 μL, which was then measured by HPLC. A degradation rate per unit time (a reaction rate per unit time) was calculated from the peak area of HPLC of the reaction product (FIG. 36).

Chymotrypsin [2] = target: T1, Chymotrypsin; test: Lineweaver-Burk plot of the substrate peptide (degradation by chymotrypsin); format: biochemical; details: 30 minutes at 37° C.
Method: as §1, with “mg/mL)), 1.5” for “mg/mL)), 3.1”, “a 1” for “a 2”, “of 1” for “of 1.6”, “mM, 500 μM, 333 μM, 250 μM,” for “mM, 1.2 mM, 0.8 mM, 0.4 mM, 0.2 mM, 0.1 mM,”, “and 200 μM.” for “and 0.05 mM.”, “(FIG. 37).” for “(FIG. 36).”

- V (reaction rate per unit time) (Chymotrypsin [1]; substrate 0.05 mM): 0.013
- V (reaction rate per unit time) (Chymotrypsin [1]; substrate 0.1 mM): 0.027
- V (reaction rate per unit time) (Chymotrypsin [1]; substrate 0.2 mM): 0.046
- V (reaction rate per unit time) (Chymotrypsin [1]; substrate 0.4 mM): 0.068
- V (reaction rate per unit time) (Chymotrypsin [1]; substrate 0.6 mM): 0.075
- V (reaction rate per unit time) (Chymotrypsin [1]; substrate 0.8 mM): 0.083
- V (reaction rate per unit time) (Chymotrypsin [1]; substrate 1 mM): 0.087
- 1/V (inverse of the reaction rate) (Chymotrypsin [2]; 1/Substrate 2 1/mM): 7.02 mol⁻¹ min⁻¹
- 1/V (inverse of the reaction rate) (Chymotrypsin [2]; 1/Substrate 4 1/mM): 8.51 mol⁻¹ min⁻¹
- 1/V (inverse of the reaction rate) (Chymotrypsin [2]; 1/Substrate 6 1/mM): 11.9 mol⁻¹ min⁻¹
- 1/V (inverse of the reaction rate) (Chymotrypsin [2]; 1/Substrate 8 1/mM): 10.9 mol⁻¹ min⁻¹
- 1/V (inverse of the reaction rate) (Chymotrypsin [2]; 1/Substrate 10 1/mM): 14.7 mol⁻¹ min⁻¹
SMILES: C[C@@H](O)[C@H](NC(=O)[C@H](CCCCN)NC(=O)[C@H](CC(N)=O)NC(=O)[C@H](CC(=O)O)NC(=O)[C@H](CO)NC(=O)CNC(=O)[C@@H]1CSCN1)C(=O)N[C@@H](Cc1ccc(O)cc1)C(=O)NCC(=O)N[C@@H](CC(N)=O)C(=O)N[C@@H](CCCCN)C(=O)N[C@@H](CS)C(=O)N[C@@H](CC(N)=O)C(=O)N[C@@H](Cc1ccccc1)C(=O)O [substrate peptide] (H-[Thz]GSDNKTYGNKCNF-OH)
